The subject of data set [1] is TS-negative FSthy21 cells transfected with I108F mutant human TS cDNA. Type of data set: cell-based, mouse. Particulars: AG337; 1108F/clone (2) vs wild-type clone (2).
Data set [2] deals with TS-negative FSthy21 cells transfected with F225W mutant human TS cDNA. The class given is cell-based, mouse. The settings on record: AG337; F225W/clone (2) vs wild-type clone (1).
For data set [3], the system named is TS-negative FSthy21 cells transfected with F225L mutant human TS cDNA. Type of data set: cell-based, mouse. Particulars: AG337; F225L/clone (3) vs wild-type clone (1).
The test system of data set [4] is TS-negative FSthy21 cells transfected with F225Y mutant human TS cDNA. Type of data set: cell-based, mouse. The settings on record: AG337; F225Y/clone (1) vs wild-type clone (1).
The test system of data set [5] is TS-negative FSthy21 cells transfected with L221A mutant human TS cDNA. The class given is cell-based, mouse. The settings on record: AG337; L221A/clone (2) vs wild-type clone (1).
The subject of data set [6] is TS-negative FSthy21 cells transfected with L221I mutant human TS cDNA. The class given is cell-based, mouse. The settings on record: AG337; L221I/clone (1) vs wild-type clone (1).
Data set [7] deals with TS-negative FSthy21 cells transfected with L221S mutant human TS cDNA. Type of data set: cell-based, mouse. Particulars: AG337; L221S/clone (2) vs wild-type clone (1).
In data set [8] the test system is TS-negative FSthy21 cells transfected with K47E mutant human TS cDNA. Type of data set: cell-based, mouse. The settings on record: AG337; K47E/clone (2) vs wild-type clone (1).
Data set [9] deals with TS-negative FSthy21 cells transfected with D49G mutant human TS cDNA. Type of data set: cell-based, mouse.
For data set [10], the system named is TS-negative FSthy21 cells transfected with G52S mutant human TS cDNA. The class given is cell-based, mouse.
Another data set deals with HT1080 cells. The experiment in a line: AG337 sensitivity of HT1080 (colony formation). The class given is cell-based, human. Particulars: drug cytotoxicity assay. Here is the method:
The optimum concentration of AG337 for selection of resistant clones was determined as follows. The human fibrosarcoma HT1080 cells were seeded into 6-well plates at 100 cells per well and incubated at 37° C. with complete medium. Various concentrations of AG337 were added after 24 hours. Drug-containing medium was changed every 4 days and surviving colonies were counted after 14 days of drug treatment.

Data set [11] concerns in situ TS activity in AG337-resistant HT1080 cell lines. The experiment in a line: Whole cell TS assay (tritium release). The class given is cell-based, human. Particulars: resistant lines HT1080/1b, 2b, 1c, 2c, 1d, 2d, 6e at minimal AG337 concentration giving no detectable TS activity in HT1080. Here is the method: Resistance to TS inhibitors was evaluated using the whole cell TS assay for several AG337-resistant sublines and parental cell line HT1080 as a control. […] For the absence of TS inhibitors, cells convert 2′-[5-^3H]-deoxyuridine to dTMP, releasing ^3H2O into the medium. The rate of dTMP synthesis in the presence or absence of drug was assessed at 0, 15, 30, 40 minutes, by measurement of [3H]2O release by charcoal-TCA (trichloroacetic acid) separation of ^3H2O from nucleosides and nucleotides. Radioactivity was quantitated using a liquid scintillation counter (Beckman LS5).
The effect of AG337 on whole cell in situ TS activity was measured by the tritium release assay in HT1080 cells and several resistant cell lines with putative mutations. The cell lines HT1080/1b, HT1080/2b, HT1080/1c, HT1080/2c, HT1080/1d, HT1080/2d and HT1080/6e were resistant to AG337. […] This method provided a rapid qualitative confirmation of whether or not a cell line is resistant to AG337.

Data set [12] deals with mouse bone marrow cells (N.B.M.). Kind of data set: CFU-GM / HPPCFU-C assay, N.B.M. Type of data set: cell-based.
The subject of data set [13] is mouse bone marrow cells transfected with wild type TS (TS161). The experiment in a line: CFU-GM / HPPCFU-C assay, marrow transfected with plasmid TS161. Type of data set: cell-based. Here is the method: (§1) DNA into Mouse Bone Marrow Progenitor Cells Twenty micrograms of plasmid DNA (TS161 or TS175) and ten micrograms of DOTAP were diluted to 100 μl with HBS buffer and incubated at room temperature for 10 minutes. The mixture was added to 2×10^6 mouse bone marrow cells suspended in 0.5 ml of IMDM medium (in a 35 mm culture dish). After a 4 hour incubation at 37° C., 2 ml of IMDM with 30% FBS was added to each dish and the incubation was continued for 24 hours. […] Transfected cells prepared as described above were distributed into 10×35 mm dishes (3×10^5 cells in […] IMDM media/dish). […] Drug was added at the indicated concentration to each dish and the cells were cultured at 37° C. (5% CO2) for 10-14 days.

Data set [14] deals with mouse bone marrow cells transfected with mutant TS (TS175). The experiment in a line: CFU-GM / HPPCFU-C assay, marrow transfected with plasmid TS175. Type of data set: cell-based. Here is the method: as §1
Data set [15] has as its target TS-negative FSthy21 cells transfected with I108A mutant human TS cDNA (Homo sapiens, UniProt P04818, P2L/I108A, cells depend on it). Kind of data set: Growth inhibition assay (alamar Blue), I108A transfectants. The settings on record: read-out: IC50 values, 7-day exposure. (Alamar Blue is a resazurin reagent that responds to reducing activity.)
Procedure: (§3) The mouse TS-negative FSthy21 cells were used as the host for DNA transfections. This cell line, which is a TS-deficient derivative of mouse FM3A cells, was routinely maintained in MEM medium supplemented with 10% fetal bovine serum and 10×10^−5 M thymidine. Transfections were performed by DOTAP, using 10 μg of DNA/culture. Four days after transfection, cells were placed in selective medium, which contain no thymidine and reduced folate. Colonies having the ability to grow in the absence of thymidine were pooled and propagated as a mass culture.
(§4) Logarithmically growing suspension mouse TS-20 negative FSthy21 cells transfected with wild-type or variant human TS cDNA were seeded in 96-well plates at 1,000 cells/well in 180 μl of complete medium. […] Cell viability was measured by the alamar Blue™ assay. This method incorporates an oxidation-reduction (REDOX) indicator that both fluoresces and changes color in response to chemical reduction of growth medium resulting from cell growth. To above 96-well cultured cells, 25 μl of Alamar Blue (Alamar, Sacramento, Calif.) (10% of incubation volume) were added according to the manufacturer's instructions. The culture 96-well plates were then incubated at 37° C. for 4 hours. Viable cells induce chemical reduction of the media which results in a change in REDOX color from blue to red. The intensity of red color (and fluoresces) is proportional to the viable cells. After incubation, fluorescence is was read at 530-560 nm excitation wavelength and 590 nm emission wavelength by an automated plate reader (model EL340; Bio-Tek). Drug concentrations needed to reduce cell growth by 50% (IC50 values) were determined graphically by plotting of cell growth verses inhibitor concentration.
(§5) The effect of three antifolates and FdUrd on the growth characteristics of transfectants that stably express various TS proteins was evaluated by cytotoxicity studies. Cell growth was measured by the alamar blue assay. IC50 values were calculated as the concentration of inhibitor required to inhibit growth by 50% compared to wild-type transfected cells grown under identical conditions.
Data set [16] deals with TS-negative FSthy21 cells transfected with I108A mutant human TS cDNA. Described as above. Particulars: for Ratio of IC50 values for mutant/wt cells: AG337.
Procedure: as §3, §4, §5
The conditions of data set [17]: in vivo; cited from earlier work.
The conditions of data set [18]: cited from earlier work.
The test system of data set [19] is human colon tumor cell line with Tyr33 to His33 TS. The settings on record: cited from earlier work.
The target of data set [20] is TS-negative FSthy21 cells transfected with wild-type human TS cDNA (Homo sapiens, UniProt P04818, P2L, cells depend on it). The experiment in a line: Growth inhibition assay (alamar Blue), TS-negative cells transfected with wild-type human TS cDNA. The class given is cell-based, mouse. The settings on record: Tomudex, 7-day exposure, read-out: IC50 values.
The subject of the next data set is Normal Bone Marrow cells. The experiment in a line: CFU-GM assay, Normal Bone Marrow (retroviral vector study). Type of data set: cell-based, murine. The text has this: (§2) The following tables 15-17 summarize additional proof that these mutants confer resistance to chemotherapeutic agents by increasing the number of drug resistant CFU-GM colonies formed by murine bone marrow cells infected with retroviral vectors containing these mutant TS cDNAs.

Data set [21] deals with murine bone marrow cells infected with Wt TS vector. Kind of data set: CFU-GM assay, marrow infected with Wt TS retroviral vector. The class given is cell-based.
Data set [22] deals with murine bone marrow cells infected with I108A mut-TS vector. Kind of data set: CFU-GM assay, marrow infected with I108A mut-TS retroviral vector. The class given is cell-based.
Source text: as §2

The next data set concerns the target TS (Homo sapiens, UniProt P04818). Particulars: enzyme assays; cited from earlier work.
The next data set deals with cell growth. The settings on record: cited from earlier work.
Another data set addresses FPGS (Homo sapiens, UniProt Q05932). Particulars: cited from earlier work.

What is called IC50 is the concentration needed to halve the response being measured. Higher therefore signals a need for much substance.

Where two headings read alike, the source gives them in different places.

TS-negative FSthy21 cells transfected with I108A mutant human TS cDNA (Homo sapiens, UniProt P04818, P2L/I108A, cells depend on it), sequence (P04818 whole entry P2L/I108A): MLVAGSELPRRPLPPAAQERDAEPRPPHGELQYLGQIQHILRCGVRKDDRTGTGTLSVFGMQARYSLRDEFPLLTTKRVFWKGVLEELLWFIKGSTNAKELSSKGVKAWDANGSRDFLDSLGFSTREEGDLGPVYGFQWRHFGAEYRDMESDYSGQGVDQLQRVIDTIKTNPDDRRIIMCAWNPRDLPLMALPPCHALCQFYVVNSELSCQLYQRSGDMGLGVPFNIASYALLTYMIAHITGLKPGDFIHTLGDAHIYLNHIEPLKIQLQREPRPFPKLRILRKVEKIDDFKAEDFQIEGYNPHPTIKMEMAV
TS-negative FSthy21 cells transfected with wild-type human TS cDNA, sequence (P04818 whole entry P2L): as the sequence (P04818 whole entry P2L/I108A) above, with A108I counted along it
FPGS, sequence (Q05932 43-587, species assumed): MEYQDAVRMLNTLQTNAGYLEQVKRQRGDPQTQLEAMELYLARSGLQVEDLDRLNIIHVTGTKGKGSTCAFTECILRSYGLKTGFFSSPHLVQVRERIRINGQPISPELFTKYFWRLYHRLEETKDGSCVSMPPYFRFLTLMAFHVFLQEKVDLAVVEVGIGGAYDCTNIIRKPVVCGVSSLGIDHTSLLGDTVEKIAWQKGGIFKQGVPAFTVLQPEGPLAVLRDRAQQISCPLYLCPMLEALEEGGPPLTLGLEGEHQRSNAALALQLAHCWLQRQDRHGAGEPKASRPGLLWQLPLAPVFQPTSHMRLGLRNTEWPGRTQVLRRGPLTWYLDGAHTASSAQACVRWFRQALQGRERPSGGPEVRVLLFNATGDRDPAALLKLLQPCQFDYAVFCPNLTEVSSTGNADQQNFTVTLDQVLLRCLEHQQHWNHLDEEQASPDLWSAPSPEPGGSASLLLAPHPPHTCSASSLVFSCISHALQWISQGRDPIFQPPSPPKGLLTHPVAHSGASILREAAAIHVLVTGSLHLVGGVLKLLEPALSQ
TS, sequence (P04818 whole entry): as the sequence (P04818 whole entry P2L/I108A) above, with L2P, A108I counted along it

With `Cc1ccc2nc(N)[nH]c(=O)c2c1Sc1ccncc1` [AG337], the “Ratio of IC50 values for mutant/wt cells” value in data set [1] is given as 7.0(2); in data set [2] it was 1.0(1); in data set [3], 1.0(1); in data set [4], 1.5(1); in data set [5], 5.5(1); in [6], 5.2(1). Moreover, the “Ratio of IC50 values for mutant/wt cells” value is recorded as 4.5(1) in data set [7]; 5.0(1) in [8]; 40(1) in [9] (AG337, D49G/clone (1) vs wild-type clone (1)); 12(1) in data set [10] (AG337, G52S/clone (3) vs wild-type clone (1)); 80(2)^2 in data set [16] (1108A/clone (1) vs wild-type clone (2)); 76(2) in [16] (1108A/clone (2) vs wild-type clone (2)). The “Ratio of IC50 values for mutant/wt cells” value in [16] (1108A/clone (3) vs wild-type clone (2)) is 200(2). Also, the “resistance, IC50 values greater than wild-type transfectants” value is recorded as 40 fold in data set [9] (D49G transfectants vs wild-type transfectants) and 12 fold in data set [10] (G52S transfectants vs wild-type transfectants). In the data set with HT1080 cells, this compound returned a 50% inhibitory concentration (IC50) of 2100 nM. In addition, the “TS activity in whole cells” value in data set [11] is on record as “not totally inhibited”. In addition, the figures for the HPPCFU-C colonies in [12] (AG337 1 × 10^−7 M), in data set [13] (AG337 1 × 10^−7 M) and in data set [14] (AG337 1 × 10^−7 M) were 0, 0 and 8, respectively. Also, the CFU-GM colonies came out at 10 in data set [12] (AG337 1 × 10^−8 M); 0 in data set [12] (AG337 2 × 10^−7 M); 20 in [13] (AG337 1 × 10^−8 M); 0 in data set [13] (AG337 2 × 10^−7 M); 60 in data set [14] (AG337 1 × 10^−8 M); 12 in [14] (AG337 2 × 10^−7 M). In addition, the “CFU-GM colonies, % in parentheses” value in data set [12] (AG337 1 × 10^−8 M) amounted to 12%; in [13] (AG337 1 × 10^−8 M) it was 19%; in [14] (AG337 1 × 10^−8 M) it was 42%; in data set [14] (AG337 2 × 10^−7 M) it was 8%. For the same compound, the “HPPCFU-C colonies, % in parentheses” value in data set [14] (AG337 1 × 10^−7 M) turned out to be 6%. Moreover, the GI50 in [15] (AG337, 1108A/clone (1) [175-1]) was 30500 ± 3700 nM; in data set [15] (AG337, 1108A/clone (2) [175-2]), 29000 ± 2500 nM; in [15] (AG337, 1108A/clone (3) [175-3]) it was 76600 ± 2800 nM. Moreover, in [16] (clones 175-2 and 175-3), the “biggest difference in IC50 values between clones” value was “less than 3 fold”.

For `C#CCN(Cc1ccc2nc(N)[nH]c(=O)c2c1)c1ccc(C(=O)N[C@@H](CCC(=O)O)C(=O)O)cc1` [CB3717, N^10-propargyl-5,8-dideazafolic acid], in data set [17], the “toxicity in Phase I trials” value is “severe renal and hepatic toxicity”. In addition, in data set [18], the aqueous solubility result is given as “poor”.

`O=c1[nH]c(=O)n([C@H]2C[C@H](O)[C@@H](COP(=O)(O)O)O2)cc1F` [FdUMP, 5-fluoro-2-deoxyuridylate]: the “resistance conferred by Tyr33 to His33 substitution” value in data set [19] is 3- to 4 fold.

With `Cc1nc2ccc(CN(C)c3ccc(C(=O)N[C@@H](CCC(=O)O)C(=O)O)s3)cc2c(=O)[nH]1` [Tomudex, N-(5-[N-(3,4-dihydro-2-methyl-4-oxoquinazolin-6-ylmethyl)-N-methylamino-]-2-thenoyl)-L-glutamic acid], the GI50 in [20] (wild-type/clone (1) [161-1]) was found to be 2.37 ± 0.18 nM; in data set [20] (wild-type/clone (2) [161-2]) it was 1.8 ± 0.47 nM; in data set [20] (wild-type/clone (3) [161-3]), 3.37 ± 0.34 nM; in [15] (Tomudex, 1108A/clone (1) [175-1]), 97.9 ± 17.1 nM; in data set [15] (Tomudex, 1108A/clone (2) [175-2]), 76.8 ± 7.3 nM; in data set [15] (Tomudex, 1108A/clone (3) [175-3]), 174 ± 7 nM. In addition, the CFU-GM colonies in [12] (tomudex 1 × 10^−8 M) was found to be 14; in data set [12] (tomudex 2 × 10^−8 M) it was 0; in data set [13] (tomudex 1 × 10^−8 M), 28; in [13] (tomudex 2 × 10^−8 M), 0; in data set [14] (tomudex 1 × 10^−8 M), 64; in data set [14] (tomudex 2 × 10^−8 M) it was 14. The “CFU-GM colonies, % in parentheses” value in data set [12] (tomudex 1 × 10^−8 M) is listed as 17%; in data set [13] (tomudex 1 × 10^−8 M), 26%; in [14] (tomudex 1 × 10^−8 M), 44%; in data set [14] (tomudex 2 × 10^−8 M), 10%. The results for the HPPCFU-C colonies in data set [12] (tomudex 1 × 10^−8 M), in data set [13] (tomudex 1 × 10^−8 M) and in data set [14] (tomudex 1 × 10^−8 M) were 0, 0 and 9, respectively. Besides, the “HPPCFU-C colonies, % in parentheses” value in data set [14] (tomudex 1 × 10^−8 M) amounted to 6%. For the same compound, the CFU-C came out at 16 in the data set on Normal Bone Marrow cells (Tomudex 1 × 10^−8 M); 0 with Normal Bone Marrow cells (Tomudex 2 × 10^−8 M); 33 in data set [21] (Tomudex 1 × 10^−8 M); 10 in data set [21] (Tomudex 2 × 10^−8 M); 53 in data set [22] (Tomudex 1 × 10^−8 M); 25 in [22] (Tomudex 2 × 10^−8 M). The “CFU-C, % in parentheses” value was 10% in the data set on Normal Bone Marrow cells (Tomudex 1 × 10^−8 M); 20% in [21] (Tomudex 1 × 10^−8 M); 6% in [21] (Tomudex 2 × 10^−8 M); 36% in data set [22] (Tomudex 1 × 10^−8 M); 15% in [22] (Tomudex 2 × 10^−8 M). Further, the HPPCFU-C came to 0 in the data set on Normal Bone Marrow cells (Tomudex 1 × 10^−8 M), 10 in data set [21] (Tomudex 1 × 10^−8 M) and 26 in [22] (Tomudex 1 × 10^−8 M). Besides, the results for the “HPPCFU-C, % in parentheses” value in [21] (Tomudex 1 × 10^−8 M) and in [22] (Tomudex 1 × 10^−8 M) were 23% and 53%, respectively. In addition, on TS, the “less potent as a TS inhibitor than CB3717” value is 20 times. For the same compound, the “more active in inhibiting cell growth than CB3717” value in the data set on cell growth is 500 fold. For the same compound, the “affinity for FPGS higher than that of CB3717” value on FPGS is given as 30 times.
